From patent US20240251785A1, “SMALL MOLECULE ANTAGONISTS AND AGONISTS OF ARTHROPOD KININ RECEPTORS FOR PEST CONTROL” (The Texas A&M University System, priority 2021, published 2024)
pEC50, pIC50: −log10 of the molar value. Like-named read-outs stand apart in the source and are kept apart here. Where no end group is shown, it is not given here.

Legend:
[1] = tested on: R. microplus kinin receptor; assay: High-throughput dual-addition calcium fluorescence screen on BMLK3 cells; assay type: cell-based, Rhipicephalus microplus; settings: compound 2 μmol L^−1, 5 min, then FFFSWGa 500 nmol L^−1
[2] = biological target: recombinant tick kinin receptor (BMLK3) (Rhipicephalus microplus, UniProt Q9NHA4); assay: Dose-response dual-addition calcium fluorescence assay on BMLK3 cells; assay type: cell-based; settings: for pEC50: read-out: BMLK3 EC50; for activity type in dose-response assay, in words: Rhimi-K-1 1 μmol L^−1
[3] = tested on: vector-only (V/O) CHO-K1 cells; assay: Dose-response dual-addition calcium fluorescence assay on vector-only cells; assay type: cell-based
[4] = tested on: Human dermal fibroblasts (HDF) cells; assay: Cytotoxicity assay (resazurin); assay type: cell-based; settings: Human dermal fibroblasts cells; tested at 20 μcool L^−1
[5] = tested on: isolated hindguts from females of the mosquito Aedes aegypti; assay: Hindgut contraction inhibition assay; settings: for effect on hindgut contraction elicited by 1728, in words: compound 100 μmol L^−1, 5 min, then 1728 10 μmol L^−1, 1 h
Method: A mosquito colony of Ae. aegypti (Diptera: Culicidae), Liverpool strain, was maintained at 26.5° C. in a 16 h:8 h, light:dark photoperiod and provided with 10% sugar water, as described previously.^31 For the experiment, 3-5-day-old females were used, and the assay was modified based on our previous protocol.^33 A group of six female mosquitoes were cold-anesthetized on a Petri dish placed on ice, where both wings were removed. Mosquitoes became active when the plate was removed from the ice. The dissection dish was filled with Ringer's solution (150 mmol L^−1 NaCl, 25 mmol L^−1 HEPES, 3.4 mmol L^−1 KCl, 7.5 mmol L^−1 NaOH, 1.8 mmol L^−1 NaHCO3. 1 mmol L^−1 MgSO4, 1.7 mmol L^−1 CaCl2 and 5 mmol L^−1 glucose, pH 7.1) at room temperature. To dissect the hindgut of each mosquito, their head and thorax were removed with forceps, and the abdomen was submerged in the Ringer solution. The hindgut, ovaries and Malpighian tubules (MTs), and midgut were taken out by pulling the last segment of the abdomen under the Ringer solution. Then, the ovaries and the majority of the midgut were removed using scissors leaving the intact hindgut and MTs. The isolated tissue was transferred with forceps, gripping on the cuticle of the last segment, into a drop of 30 μL Ringer solution in a 12-well-plate (Greiner Bio-One®, 665,102). After six mosquitoes were dissected as a group, paraffin oil (1-2 mL) was added to each well to cover the saline. The cuticle of the last abdominal segment was drawn out of the Ringer solution into the oil for better observation of the hindgut contraction. The tissues were filmed using an Olympus SZ60 camera (Olympus America Inc., Center Valley, PA, USA) mounted on a dissecting microscope.
First, the hindgut basal contraction rate was recorded by filming each tissue for 60 s. […] After 5 min of incubation at room temperature, 15 μL kinin agonist analog 1728 solution (4×in Ringer solution) was added to the Ringer solution to reach a final concentration of 10 μmol L^−1. After 1 h of incubation, the tissue was filmed again for 60 s.
The contractible hindgut of mosquito consists of a funnel-shaped pylorus located immediately after the posterior midgut, followed by a long, coiled ileum, and a bulbous colon which contains the rectal pads, and a tapering rectal tube at the posterior end.^35 To analyze each video, the hindgut contraction number was counted by observing the contraction occurring at the junction between the pyloric sphincter and the most anterior ileum. The hindgut contraction rate was expressed as the number of contractions observed over 60 s. The fold change in contraction rate was calculated as the contraction rate estimated at 1 h post treatment divided by the basal rate estimated before the treatment with the chemicals. Each treatment was repeated with 30 female mosquitoes independently. All statistical analyses were done by PRISM software (v8, GraphPad). The differences in fold-change of the contraction rates among treatments were analyzed using the nonparametric Kruskal-Wallis test, followed by the Dunn's multiple comparison test. […].

[6] = tested on: Aedes aegypti kinin receptor; assay: Calcium fluorescence assay on recombinant mosquito kinin receptor (IGKN G12 cell line); assay type: cell-based; settings: for calcium response, in words: 100 μmol L^−1
Method: Three identified potent small molecule antagonists, and as control, a small molecule of very low antagonistic activity, all identified as part of this study, were tested in the calcium fluorescence assay, as above, for their activity on the cell line expressing the Aedes aegypti kinin receptor (IGKN G12 cell line). Receptor cloning, expression and clonal cell selection were as described previously.^3′ The recombinant tick kinin receptor (BMLK3) was tested simultaneously as positive control for the assay. BMLK3 and IGKN G12 cells were seeded in 96-well-plates (Greiner Bio-One®, B/C 655097) at a density of […] cells in 100 μL maintenance medium. Cells were prepared as described above for the calcium fluorescence assay; and each well was added with 90 μL assay buffer (see Section 2.3, HHBS plus dye efflux inhibitor).
For each compound three 10× concentrations (100, 300, 1000 μmol L^−1) were prepared and 10 μL of each was added manually into one well of each cell line for a final concentration of 10, 30 and 100 […]. After 5 min incubation at room temperature, a kinin receptor agonist peptide, the kinin agonist analog 1728^28 [[Aib]FF[Aib]WGamide, RoyoBiotech, Shanghai, China] was added manually (50 μL; 3× stock in HHBS) into each well for a final concentration of 1 μmol L^−1. The cellular calcium response in RFU was immediately recorded continuously for 60 s with 3 s intervals between reads using a Clariostar plate reader. The average RFU of these 20 reads represented the raw response to each treatment. Three independent replicates were run for each concentration and compound. The percentage of signal reduction with respect to the control that contained solvent and the kinin agonist analog 1728 was calculated using the average RFU registered for the treatment with each small molecule divided by the average RFU recorded for the control (100%). Data analyses were performed with the percentage reduction of the three independent replicates. PRISM (Graphpad, San Diego. CA, USA) was utilized for analysis and graphics.

[7] = biological target: T1, recombinant tick kinin receptor (BMLK3) (Rhipicephalus microplus, UniProt Q9NHA4); assay: dual-addition intracellular calcium fluorescence assay, antagonist dose-response (inhibition of Rhimi-K-1 response in BMLK3 cells); assay type: cell-based; settings: FIG. 6 SAR analysis; BMLK3 CHO-K1 cells stably expressing R. microplus kinin receptor; agonist Rhimi-K-1 (QFSPWGamide) 1 μmol L^−1
T1 construct: intracellular calcium fluorescence; agonist Rhimi-K-1 (QFSPWGamide)
T1 sequence (Q9NHA4 1-397): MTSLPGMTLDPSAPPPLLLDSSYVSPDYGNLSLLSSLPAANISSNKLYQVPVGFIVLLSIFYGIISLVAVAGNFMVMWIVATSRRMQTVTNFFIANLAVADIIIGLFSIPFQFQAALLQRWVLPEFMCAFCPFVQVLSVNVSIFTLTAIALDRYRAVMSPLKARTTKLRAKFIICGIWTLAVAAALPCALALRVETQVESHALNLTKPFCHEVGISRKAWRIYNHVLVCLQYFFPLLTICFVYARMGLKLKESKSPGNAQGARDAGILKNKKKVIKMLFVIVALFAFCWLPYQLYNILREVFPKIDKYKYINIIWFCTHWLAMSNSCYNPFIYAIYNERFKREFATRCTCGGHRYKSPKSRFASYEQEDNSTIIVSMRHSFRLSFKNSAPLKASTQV

[8] = tested on: Drosophila melanogaster renal organs; settings: cited from earlier work
[9] = tested on: Rhodnius prolixus hindgut; settings: cited from earlier work
[10] = first addition, 20 concentrations 28 nM-25 μM
[11] = second addition Rhimi-K-1 1 μmol L^−1, read-out: BMLK3 IC50
[12] = summary of 36 validated antagonist hits, BMLK3 cells
[13] = V/O cells, second addition Rhimi-K-1 1 μmol L^−1, read-out: V/O antagonist IC50
[14] = summary of 36 validated antagonist hits, BMLK3 cells, read-out: BMLK3 IC50
[15] = summary of 36 validated antagonist hits, vector-only cell (V/O)
[16] = compound 10 μmol L^−1, 1 h after 1728 (data not shown)
[17] = Table 5 analogs, first addition
[18] = Table 5 analogs, second addition Rhimi-K-1 1 μmol L^−1, read-out: BMLK3 antagonist IC50
[19] = Table 5 analogs, V/O cells, read-out: V/O antagonist IC50

Compound	Inhibitory Efficacy at 12 μM ([2]; BMLK3 cells)	pEC50 [2, 12]	HDF average % growth inhibition [4]	pIC50 [2, 14]	pEC50 [3, 15]	pIC50 [3, 15]	effect on hindgut contraction elicited by 1728, in words [5]	pEC50 ([3]; Table 5 analogs, V/O cells)	pIC50 [3, 19]	other results
Cc1ccc(-c2csc3ncnc(NCc4ccco4)c23)cc1 [SACC-0033457]	55.73%	6.91	8.023%	–	–	–	–	–	–	antagonist Io (%) [1]: 63%; pEC50 [2, 10]: 6.91; pIC50 [2, 11]: 4.83; pEC50 ([3]; V/O cells, first addition): 4.94; pIC50 [3, 13]: 6.17
CCCC[n+]1c(/C=C2/C=CN(CC)c3ccc(C)cc32)ccc2ccccc21 [SACC-0048555]	107.39%	5.05	−9.767%	5.82	4.89	5.44	–	–	–	antagonist Io (%) [1]: 54%; activity type in dose-response assay, in words ([2]; BMLK3 cells): full agonist; pEC50 [2, 10]: 5.05; pIC50 [2, 11]: 5.82; pEC50 ([3]; V/O cells, first addition): 4.89; pIC50 [3, 13]: 5.44
O=C1C(=Cc2ccccc2)SC(=S)N1NS(=O)(=O)c1ccccc1 [SACC-0412060]	91.75%	5.02	6.873%	5.72	5.03	6.27	inhibited the increased rate of muscle contraction	5.03	6.27	hindgut contraction rate, in words [5, 16]: no increase in the hindgut contraction rate was observed; effect on hindgut contraction elicited by 1728, in words ([5]; listed as SACC-0412000): significantly reduced the mobility of the hindgut; pEC50 [2, 17]: 5.02; pIC50 [2, 18]: 5.72
Cc1ccc(S(=O)(=O)NN2C(=O)C(=Cc3cccc4ccccc34)SC2=S)cc1 [SACC-0412062]	50.31%	–	8.117%	–	5.20	5.13	inhibited the increased rate of muscle contraction	5.20	5.13	–
Cc1ccc(S(=O)(=O)NN2C(=O)C(=Cc3ccc(C(=O)O)cc3)SC2=S)cc1 [SACC-0412064]	0.31%	4.89	−7.067%	6.93	4.76	5.83	did not differ	4.76	5.83	activity type in dose-response assay, in words ([2]; BMLK3 cells): very weak partial antagonists; pEC50 [2, 17]: 4.89; pIC50 [2, 18]: 6.93; calcium response, in words [6]: did not antagonize the calcium response
CCOc1cc(C=C2SC(=S)N(NS(=O)(=O)c3ccc(C)cc3)C2=O)ccc1O [SACC-0412066]	79.17%	–	2.02%	–	< 4.60	5.98	inhibited the increased rate of muscle contraction	< 4.60	5.98	hindgut contraction rate, in words [5, 16]: no increase in the hindgut contraction rate was observed; effect on hindgut contraction elicited by 1728, in words ([5]; listed as -10412066): significantly reduced the mobility of the hindgut; effect on hindgut contraction elicited by 1728, in words ([5]; listed as SACC-0412006): did not observe any increase in the hindgut contraction rate; inhibition of response compared to control ([6]; 30 μmol L^−1, 1728 1 μmol L^−1): 84%; calcium response, in words [6]: elicited a strong calcium response
C1C1═CC═C(\C═C2\SC(═O)N(NS(═O)(═O)C3═CC═CC═C3)C2═S)C═C1 [SACC-0064443]	–	–	–	–	–	–	–	–	–	pIC50 [7]: 6.18
NPFHAWG-NH2 [aedeskinin 2, reference compound]	–	–	–	–	–	–	–	–	–	hindgut contraction rate, in words ([5]; 1 μmol L^−1, 1 h (data not shown)): increase of hindgut contraction rate
[Aib]FF[Aib]WGamide [Molecule 1728]	–	–	–	–	–	–	–	–	–	increase of contraction rate, solvent plus 1728 group ([5]; 1728 10 μmol L^−1, solvent control of SACC-0412062 test (FIG. 8B), 1 h): two-fold; increase of fluid secretion from renal organs, in words ([8]; 10^−7 M range): not active; concentration active in diuretic assays [8]: 25 µM; concentration inducing hindgut contraction [9]: 10^−16 M
